Test results from patent publication US5534242A, “Lidocaine-vasoconstrictor aerosol preparation” (priority 1995, dated 1996).
Structures can show the parent of a compound that is named as a salt.

Experiments:
[1] = Solubilization of vasoconstricting agents in HFC propellants with lidocaine base; stability of the formulations; conditions: for Behaviour of ethanol solution on addition of HFC-134a: ethanol solution also containing lidocaine free base; for Solubility in lidocaine base/HFC-134a solution: base form dissolved in ethanol (Formulations 11 and 12)
Procedure: The formulations of this invention can be manufactured in different ways. In one method, the lidocaine and vasoconstricting agent are dissolved in the organic solvent and place in the aluminum canister which is then capped and pressure filled with propellant. Where an organic solvent is not required, the lidocaine and vasoconstricting agent are dissolved in the propellant which is then pressure filled into the closed empty aluminum canister.
These formulations are presented for exemplary purposes only and by no means limit the scope and content of the invention defined by the claims.

nasal mucosa = conditions: cited from earlier work
[2] = cited from earlier work

SMILES: CNC[C@H](O)c1cccc(O)c1 [phenylephrine base]
- Clear and stable solution with phenylephrine base substituted for the hydrochloride in formulation 9 ([1]; diethylene glycol, lidocaine base, HFC-134a): Clear and stable solutions

SMILES: CNC[C@H](O)c1cccc(O)c1 [phenylephrine hydrochloride, (R)-3-hydroxy-alpha-[(methylamino)methyl]benzene methanol hydrochloride]
- Behaviour of ethanol solution on addition of HFC-134a ([1]; HFC-134a): remained in solution
- Behaviour of ethyl alcohol solution on addition of HFC-134a (2.5% w/w in ethyl alcohol, HFC-134a, no lidocaine): precipitated out of solution
- Solubility in HFC propellants (HFC-134a and HFC-227, no lidocaine): insoluble
- Additional ethyl alcohol required to maintain a solution in HFC-134a in the absence of lidocaine base (HFC-134a, versus with lidocaine base, almost 50% more): ~50%
- Solubility of combination with benzyl alcohol in HFC-134a (benzyl alcohol + HFC-134a, no lidocaine): not soluble
- Solubility in benzyl alcohol (benzyl alcohol, HFC-134a added, no lidocaine): remained in solution
- Solubility in diethylene glycol (diethylene glycol): soluble
- Solubility of combination with diethylene glycol in HFC-134a (diethylene glycol + HFC-134a, no lidocaine): not soluble
- Solubility in propylene glycol (propylene glycol): soluble
- Solubility of combination with propylene glycol in HFC-134a (propylene glycol + HFC-134a, no lidocaine): not soluble

SMILES: CCN(CC)CC(=O)Nc1c(C)cccc1C [Lidocaine base, 2-(diethylamino)-2',6'-acetoxylidide]
- Behaviour of ethanol solution on addition of HFC-134a ([1]; HFC-134a): remained in solution
- Vasoconstriction of the mucosa (nasal mucosa): does not vasoconstrict the mucosa

SMILES: CNC[C@H](O)c1cccc(O)c1 [Phenylephrine]
- Decongestion of the nasal mucosa (nasal mucosa): excellent decongestion

SMILES: CC(N)C(O)c1ccccc1 (stereo not shown) [phenylpropanolamine]
- Solubility in lidocaine base/HFC-134a solution [1]: readily soluble

SMILES: OCc1ccccc1 [Benzyl alcohol]
- Solubility of organic solvent in HFC-134a (HFC-134a, no lidocaine): not soluble

SMILES: COc1ccc(OC)c(C(O)C(C)N)c1 (stereo not shown) [methoxamine]
- Solubility in lidocaine base/HFC-134a solution [1]: readily soluble

SMILES: COC(=O)[C@H]1[C@@H](OC(=O)c2ccccc2)C[C@@H]2CC[C@H]1N2C [Cocaine]
- Dose that may cause systemic toxicity ([2]; even small doses): approximately 30 mg
- Tolerability ([2]; most patients): well tolerated by most patients
